Data reported in publication PMC11124057 (Molecules, 2024).
Read-outs that look alike come from different tables or passages of the source.

Tests used:
[1] = not given; remark: listed apart in the source

Molecule CC(C)Cc1ccc(C(C)C(=O)O)cc1 (racemic) [ibuprofen, (RS)-2-(4-(2-methylpropyl)phenyl)propanoic acid] has a Mole fraction solubility (neat DES betaine-DEG 1:1, 25°C) of 0.223±0.0026 mole fraction, a Mole fraction solubility (neat DES betaine-GLY 1:2, 25°C, listed as IP) of 0.297 mole fraction and a Mole fraction solubility (neat DES betaine-P2D 1:1, 25°C) of 0.1561±0.0027 mole fraction. The Mole fraction solubility (neat DES betaine-P2D 1:2, 25°C) was 0.1919±0.0023 mole fraction, the Mole fraction solubility (neat DES betaine-P2D 1:4, 25°C) was 0.2062±0.0014 mole fraction and the Mole fraction solubility (neat DES betaine-TEG 1:2, 25°C, listed as IP) was 0.321 mole fraction. The Mole fraction solubility (neat DES choline chloride-B3D 1:1, 25°C) was 0.1584±0.0030 mole fraction, the Mole fraction solubility (neat DES choline chloride-B3D 1:4, 25°C) was 0.1899±0.0025 mole fraction and the Mole fraction solubility (neat DES choline chloride-ETG 1:1, 25°C) was 0.2167±0.0034 mole fraction. For the same molecule, the Mole fraction solubility (neat DES choline chloride-ETG 1:2, 25°C) was 0.3072±0.0025 mole fraction, the Mole fraction solubility (neat DES choline chloride-ETG 1:4, 25°C) was 0.2905±0.0061 mole fraction and the Mole fraction solubility (neat DES choline chloride-GLY 1:1, 25°C) was 0.2793±0.0019 mole fraction. It also gave a Mole fraction solubility (neat DES choline chloride-GLY 1:2, 25°C) of 0.3495±0.0031 mole fraction, a Mole fraction solubility (neat DES choline chloride-GLY 1:2, 25°C, listed as IP) of 0.349 mole fraction and a Mole fraction solubility (neat DES choline chloride-GLY 1:4, 25°C) of 0.3187±0.0038 mole fraction. The Mole fraction solubility (neat DES choline chloride-P2D 1:1, 25°C) was 0.1611±0.0024 mole fraction, the Mole fraction solubility (neat DES choline chloride-P2D 1:2, 25°C) was 0.2068±0.0046 mole fraction and the Mole fraction solubility (neat DES choline chloride-TEG 1:2, 25°C, listed as IP) was 0.353 mole fraction. The Mole fraction solubility ([1]; DES betaine + TEG 1:2, x*DES 1.0, 25°C) was 0.3209±0.0024 mole fraction, the Mole fraction solubility ([1]; DES betaine + TEG 1:2, x*DES 1.0, 30°C) was 0.3830±0.0062 mole fraction and the Mole fraction solubility ([1]; DES betaine + TEG 1:2, x*DES 1.0, 35°C) was 0.4548±0.0069 mole fraction. It also gave a Mole fraction solubility ([1]; DES betaine + TEG 1:2, x*DES 1.0, 40°C) of 0.5444±0.0067 mole fraction, a Mole fraction solubility ([1]; DES choline chloride + TEG 1:2, x*DES 1.0, 25°C) of 0.3528±0.0029 mole fraction and a Mole fraction solubility ([1]; DES choline chloride + TEG 1:2, x*DES 1.0, 30°C) of 0.4366±0.0077 mole fraction. The Mole fraction solubility ([1]; DES choline chloride + TEG 1:2, x*DES 1.0, 35°C) was 0.5483±0.0115 mole fraction, the Mole fraction solubility ([1]; DES choline chloride + TEG 1:2, x*DES 1.0, 40°C) was 0.6784±0.0040 mole fraction and the Mole fraction solubility ([1]; aqueous DES betaine + TEG 1:2, x*DES 0.1, 25°C) was 0.0396±0.0003 mole fraction. For the same molecule, the Mole fraction solubility ([1]; aqueous DES betaine + TEG 1:2, x*DES 0.1, 30°C) was 0.0475±0.0007 mole fraction, the Mole fraction solubility ([1]; aqueous DES betaine + TEG 1:2, x*DES 0.1, 35°C) was 0.0561±0.0003 mole fraction and the Mole fraction solubility ([1]; aqueous DES betaine + TEG 1:2, x*DES 0.1, 40°C) was 0.0688±0.0013 mole fraction. The Mole fraction solubility ([1]; aqueous DES betaine + TEG 1:2, x*DES 0.2, 25°C) was 0.0911±0.0020 mole fraction, the Mole fraction solubility ([1]; aqueous DES betaine + TEG 1:2, x*DES 0.2, 30°C) was 0.1077±0.0009 mole fraction and the Mole fraction solubility ([1]; aqueous DES betaine + TEG 1:2, x*DES 0.2, 35°C) was 0.1301±0.0019 mole fraction. It also gave a Mole fraction solubility ([1]; aqueous DES betaine + TEG 1:2, x*DES 0.2, 40°C) of 0.1547±0.0024 mole fraction, a Mole fraction solubility ([1]; aqueous DES betaine + TEG 1:2, x*DES 0.3, 25°C) of 0.1423±0.0035 mole fraction and a Mole fraction solubility ([1]; aqueous DES betaine + TEG 1:2, x*DES 0.3, 30°C) of 0.1670±0.0021 mole fraction. For the same molecule, the Mole fraction solubility ([1]; aqueous DES betaine + TEG 1:2, x*DES 0.3, 35°C) was 0.2005±0.0018 mole fraction, the Mole fraction solubility ([1]; aqueous DES betaine + TEG 1:2, x*DES 0.3, 40°C) was 0.2400±0.0050 mole fraction and the Mole fraction solubility ([1]; aqueous DES betaine + TEG 1:2, x*DES 0.4, 25°C) was 0.1950±0.0030 mole fraction. It also gave a Mole fraction solubility ([1]; aqueous DES betaine + TEG 1:2, x*DES 0.4, 30°C) of 0.2288±0.0034 mole fraction, a Mole fraction solubility ([1]; aqueous DES betaine + TEG 1:2, x*DES 0.4, 35°C) of 0.2772±0.0045 mole fraction and a Mole fraction solubility ([1]; aqueous DES betaine + TEG 1:2, x*DES 0.4, 40°C) of 0.3302±0.0064 mole fraction. It also gave a Mole fraction solubility ([1]; aqueous DES betaine + TEG 1:2, x*DES 0.5, 25°C) of 0.2459±0.0052 mole fraction, a Mole fraction solubility ([1]; aqueous DES betaine + TEG 1:2, x*DES 0.5, 30°C) of 0.2949±0.0045 mole fraction and a Mole fraction solubility ([1]; aqueous DES betaine + TEG 1:2, x*DES 0.5, 35°C) of 0.3502±0.0073 mole fraction. It also gave a Mole fraction solubility ([1]; aqueous DES betaine + TEG 1:2, x*DES 0.5, 40°C) of 0.4150±0.0056 mole fraction, a Mole fraction solubility ([1]; aqueous DES betaine + TEG 1:2, x*DES 0.6, 25°C) of 0.2941±0.0043 mole fraction and a Mole fraction solubility ([1]; aqueous DES betaine + TEG 1:2, x*DES 0.6, 30°C) of 0.3535±0.0052 mole fraction. The Mole fraction solubility ([1]; aqueous DES betaine + TEG 1:2, x*DES 0.6, 35°C) was 0.4213±0.0098 mole fraction, the Mole fraction solubility ([1]; aqueous DES betaine + TEG 1:2, x*DES 0.6, 40°C) was 0.5066±0.0066 mole fraction and the Mole fraction solubility ([1]; aqueous DES betaine + TEG 1:2, x*DES 0.7, 25°C) was 0.3409±0.0049 mole fraction. The Mole fraction solubility ([1]; aqueous DES betaine + TEG 1:2, x*DES 0.7, 30°C) was 0.4057±0.0067 mole fraction, the Mole fraction solubility ([1]; aqueous DES betaine + TEG 1:2, x*DES 0.7, 35°C) was 0.4779±0.0128 mole fraction and the Mole fraction solubility ([1]; aqueous DES betaine + TEG 1:2, x*DES 0.7, 40°C) was 0.5883±0.0063 mole fraction. For the same molecule, the Mole fraction solubility ([1]; aqueous DES betaine + TEG 1:2, x*DES 0.8, 25°C) was 0.3800±0.0058 mole fraction, the Mole fraction solubility ([1]; aqueous DES betaine + TEG 1:2, x*DES 0.8, 25°C, listed as IP) was 0.380 mole fraction and the Mole fraction solubility ([1]; aqueous DES betaine + TEG 1:2, x*DES 0.8, 30°C) was 0.4493±0.0062 mole fraction. It also gave a Mole fraction solubility ([1]; aqueous DES betaine + TEG 1:2, x*DES 0.8, 35°C) of 0.5335±0.0056 mole fraction, a Mole fraction solubility ([1]; aqueous DES betaine + TEG 1:2, x*DES 0.8, 40°C) of 0.6375±0.0137 mole fraction and a Mole fraction solubility ([1]; aqueous DES betaine + TEG 1:2, x*DES 0.9, 25°C) of 0.3582±0.0053 mole fraction. The Mole fraction solubility ([1]; aqueous DES betaine + TEG 1:2, x*DES 0.9, 30°C) was 0.4279±0.0034 mole fraction, the Mole fraction solubility ([1]; aqueous DES betaine + TEG 1:2, x*DES 0.9, 35°C) was 0.5040±0.0073 mole fraction and the Mole fraction solubility ([1]; aqueous DES betaine + TEG 1:2, x*DES 0.9, 40°C) was 0.6012±0.0090 mole fraction. For the same molecule, the Mole fraction solubility ([1]; aqueous DES choline chloride + TEG 1:2, x*DES 0.1, 25°C) was 0.0211±0.0003 mole fraction, the Mole fraction solubility ([1]; aqueous DES choline chloride + TEG 1:2, x*DES 0.1, 30°C) was 0.0257±0.0001 mole fraction and the Mole fraction solubility ([1]; aqueous DES choline chloride + TEG 1:2, x*DES 0.1, 35°C) was 0.0318±0.0006 mole fraction. It also gave a Mole fraction solubility ([1]; aqueous DES choline chloride + TEG 1:2, x*DES 0.1, 40°C) of 0.0386±0.0006 mole fraction, a Mole fraction solubility ([1]; aqueous DES choline chloride + TEG 1:2, x*DES 0.2, 25°C) of 0.0641±0.0005 mole fraction and a Mole fraction solubility ([1]; aqueous DES choline chloride + TEG 1:2, x*DES 0.2, 30°C) of 0.0783±0.0007 mole fraction. It also gave a Mole fraction solubility ([1]; aqueous DES choline chloride + TEG 1:2, x*DES 0.2, 35°C) of 0.0973±0.0012 mole fraction, a Mole fraction solubility ([1]; aqueous DES choline chloride + TEG 1:2, x*DES 0.2, 40°C) of 0.1210±0.0019 mole fraction and a Mole fraction solubility ([1]; aqueous DES choline chloride + TEG 1:2, x*DES 0.3, 25°C) of 0.1227±0.0023 mole fraction. It also gave a Mole fraction solubility ([1]; aqueous DES choline chloride + TEG 1:2, x*DES 0.3, 30°C) of 0.1520±0.0019 mole fraction, a Mole fraction solubility ([1]; aqueous DES choline chloride + TEG 1:2, x*DES 0.3, 35°C) of 0.1876±0.0024 mole fraction and a Mole fraction solubility ([1]; aqueous DES choline chloride + TEG 1:2, x*DES 0.3, 40°C) of 0.2338±0.0048 mole fraction. For the same molecule, the Mole fraction solubility ([1]; aqueous DES choline chloride + TEG 1:2, x*DES 0.4, 25°C) was 0.1961±0.0021 mole fraction, the Mole fraction solubility ([1]; aqueous DES choline chloride + TEG 1:2, x*DES 0.4, 30°C) was 0.2424±0.0032 mole fraction and the Mole fraction solubility ([1]; aqueous DES choline chloride + TEG 1:2, x*DES 0.4, 35°C) was 0.2953±0.0062 mole fraction. For the same molecule, the Mole fraction solubility ([1]; aqueous DES choline chloride + TEG 1:2, x*DES 0.4, 40°C) was 0.3695±0.005 mole fraction, the Mole fraction solubility ([1]; aqueous DES choline chloride + TEG 1:2, x*DES 0.5, 25°C) was 0.2548±0.0063 mole fraction and the Mole fraction solubility ([1]; aqueous DES choline chloride + TEG 1:2, x*DES 0.5, 30°C) was 0.3205±0.0083 mole fraction. The Mole fraction solubility ([1]; aqueous DES choline chloride + TEG 1:2, x*DES 0.5, 35°C) was 0.3919±0.0029 mole fraction, the Mole fraction solubility ([1]; aqueous DES choline chloride + TEG 1:2, x*DES 0.5, 40°C) was 0.4807±0.0064 mole fraction and the Mole fraction solubility ([1]; aqueous DES choline chloride + TEG 1:2, x*DES 0.6, 25°C) was 0.2992±0.0052 mole fraction. For the same molecule, the Mole fraction solubility ([1]; aqueous DES choline chloride + TEG 1:2, x*DES 0.6, 30°C) was 0.3723±0.0052 mole fraction, the Mole fraction solubility ([1]; aqueous DES choline chloride + TEG 1:2, x*DES 0.6, 35°C) was 0.4667±0.0108 mole fraction and the Mole fraction solubility ([1]; aqueous DES choline chloride + TEG 1:2, x*DES 0.6, 40°C) was 0.5790±0.0052 mole fraction. The Mole fraction solubility ([1]; aqueous DES choline chloride + TEG 1:2, x*DES 0.7, 25°C) was 0.3351±0.0045 mole fraction, the Mole fraction solubility ([1]; aqueous DES choline chloride + TEG 1:2, x*DES 0.7, 30°C) was 0.4232±0.0081 mole fraction and the Mole fraction solubility ([1]; aqueous DES choline chloride + TEG 1:2, x*DES 0.7, 35°C) was 0.5264±0.0138 mole fraction. The Mole fraction solubility ([1]; aqueous DES choline chloride + TEG 1:2, x*DES 0.7, 40°C) was 0.6531±0.0080 mole fraction, the Mole fraction solubility ([1]; aqueous DES choline chloride + TEG 1:2, x*DES 0.8, 25°C) was 0.3673±0.0062 mole fraction and the Mole fraction solubility ([1]; aqueous DES choline chloride + TEG 1:2, x*DES 0.8, 30°C) was 0.4557±0.0051 mole fraction. For the same molecule, the Mole fraction solubility ([1]; aqueous DES choline chloride + TEG 1:2, x*DES 0.8, 35°C) was 0.5712±0.0136 mole fraction, the Mole fraction solubility ([1]; aqueous DES choline chloride + TEG 1:2, x*DES 0.8, 40°C) was 0.7095±0.0082 mole fraction and the Mole fraction solubility ([1]; aqueous DES choline chloride + TEG 1:2, x*DES 0.9, 25°C) was 0.3754±0.0036 mole fraction. For the same molecule, the Mole fraction solubility ([1]; aqueous DES choline chloride + TEG 1:2, x*DES 0.9, 25°C, listed as IP) was 0.375 mole fraction, the Mole fraction solubility ([1]; aqueous DES choline chloride + TEG 1:2, x*DES 0.9, 30°C) was 0.4619±0.0105 mole fraction and the Mole fraction solubility ([1]; aqueous DES choline chloride + TEG 1:2, x*DES 0.9, 35°C) was 0.5742±0.0073 mole fraction. The Mole fraction solubility ([1]; aqueous DES choline chloride + TEG 1:2, x*DES 0.9, 40°C) was 0.7138±0.0065 mole fraction.
